Data taken from patent publication US20120065365A1, “Stable Radiopharmaceutical Compositions and Methods for Their Preparation” (BRACCO IMAGING S.P.A., priority 2003, published 2012).
Structures can show the parent of a compound that is named as a salt. Where two headings read alike, the source gives them in different places.

Key:
[1] = format: physicochemical; settings: stabilizer 5 mg/mL added after complex preparation; for RCP % t = 0 h: ^177Lu-A (3.34 mCi avg per aliquot), analysed 1-3.5 hrs after preparation; for RCP % t = 24 h: ^177Lu-A, room temperature
Protocol: In this study, sulfur-containing compounds were tested. Cysteine has been used as an antioxidant for many drugs that contain oxidizable residues.
Solutions of each individual stabilizer (10 mg/mL) were prepared in water. To a lead-shielded 4-mL vial was added 300 μL of NaOAc buffer (0.2M, pH 4.8), 29.0 mCi ^177LuCl3 and 41.4 μg COMPOUND A (dissolved in water). The ratio of COMPOUND A to Lutetium was 3:1. The reaction mixture was heated, cooled, treated with Na2EDTA.2H2O and analyzed by HPLC as described in Example 13. Seven 50-μL aliquots (3.34 mCi ^177Lu avg each) were transferred to individual HPLC vials. To one aliquot, 50 μL of water was added for use as a control sample (no stabilizer). To the other six aliquots, 50 μL of an individual stabilizer solution (0.5 mg of stabilizer) was added, and then each was analyzed by HPLC (Method 2). The control sample, and L-cysteine ethyl ester hydrochloride and L-cysteine methyl ester hydrochloride samples were analyzed again after 24 hours of storage at room temperature.

[2] = format: physicochemical; settings: for RCP % t = 0 h: ^177Lu-A (4.80 mCi) prepared in presence of stabilizer 5 mg/mL; for RCP % t = 24 h / RCP % t = 48 h / RCP (%) t = 72 h: ^177Lu-A prepared in presence of stabilizer 5 mg/mL, room temperature
Protocol: Solutions of L-cysteine ethyl ester hydrochloride and L-cysteine methyl ester hydrochloride (5 mg/mL) were prepared by dissolving them in NaOAc buffer (0.2 M, pH 4.8). To lead-shielded 4-mL vials were added 200 μL of the individual NaOAc-stabilizer solutions, 4.80 mCi ^177LuCl3 and 7.26 μg COMPOUND A (dissolved in water). The ratio of COMPOUND A to Lutetium was 3:1 for all samples. The reaction mixtures were heated, cooled, treated with Na2EDTA.2H2O and analyzed by HPLC as described in Example 13, and then each was stored at room temperature for 72 hours. Each sample was analyzed by HPLC (Method 2) at t=0, 24, 48 and 72 h.

[3] = format: physicochemical
Protocol: The reaction vial was crimp-sealed and heated at 100° C. for 5 min. […] The sample was stored in an autosampler in which the temperature is ˜6° C. […] than room temperature, and analyzed by RP-HPLC for up to 24 hours.
L-Selenomethionine: ^177Lu-B was prepared, diluted and analyzed as described above, but 5 mg of L-Se-Met was used in place of PDTC, the heating time was 10 minutes, and the quantity of radioactivity used was 52 mCi.
L-cysteine ethyl ester, HCl: ^177Lu-B was prepared, diluted and analyzed as described above, but 5 mg of L-CEE, hydrochloride salt was used in place of PDTC, the heating time was 5 minutes and the quantity of radioactivity used was 50 mCi.
L-cysteine HCl.H2O: ^177Lu-B was prepared, diluted and analyzed as described above, but 5 mg of L-Cys HCl.H2O was used in place of PDTC, the heating time was 8 minutes and the quantity of radioactivity used was 53 mCi.

[4] = Radiostability (RCP, Met═O by HPLC) of preformed ^177Lu-A with individual amino acids added (Example 1); format: physicochemical; settings: amino acid 6.6 mg/mL, room temperature
Protocol: (§1) The injection volume was 20 μL.
Solutions of the individual amino acids L-Methionine, L-Selenomethionine, L-cysteine HCl.H2O, L-Tryptophan, L-Histidine, and Glycine were prepared at a concentration of 10 mg/mL in 10 mM Dulbecco's phosphate-buffered saline, pH 7.0 [PBS].
The final radioactive concentration of each sample was ˜20 mCi/mL.

[5] = ^177Lu-A 50 mCi in 2 mL, room temperature
[6] = format: physicochemical; settings: ^177Lu-A 13.9 mCi/mL, stabilizer 5 mg/mL added after complex preparation, room temperature
Protocol: as §1
Compounds containing the —C═S moiety [dithiocarbamates and ethionamide] were examined in this study.
Each individual stabilizer was prepared at a concentration of 10 mg/mL in water. Ethionamide was dissolved in EtOH. […] The reaction mixture was heated to 100° C. for 5 minutes, then cooled for 5 minutes in an ambient-temperature water bath. […] To an aliquot, 100 μL of one of the stabilizer solutions (1 mg of stabilizer) was added. Each aliquot was analyzed (t=0 h) by HPLC (Method 2) and stored at room temperature for 48 hours. All samples were analyzed again at t=24 h and 48 h.

[7] = format: physicochemical; settings: for RCP % t = 0 h: ^177Lu-A (5.25 mCi avg) prepared in presence of stabilizer ~3.33 mg/mL; for RCP % t = 24 h / RCP % t = 96 h: ^177Lu-A prepared in presence of stabilizer ~3.33 mg/mL, room temperature
Protocol: as §1
Ethionamide was prepared at a 10 mg/mL concentration by dissolving it in EtOH. […] Another sample was prepared to which was added 100 μL of ethanol only (no stabilizer), for use as a control sample. […] The reaction mixture was heated to 100° C. for 5 minutes then cooled for 5 minutes in an ambient-temperature water bath. To each sample, 10 μL of 2% Na2EDTA.2H2O in water was added, and then each was analysed by HPLC (Method 2) and stored at room temperature for up to 96 hours.

[8] = format: physicochemical; remark: listed apart in the source
Protocol: The ratio of COMPOUND A to Lutetium was 3:1 for all samples. The reaction mixtures were heated, cooled, treated with Na2EDTA.2H2O and analyzed by HPLC as described in Example 13, and then stored at room temperature for 24 hours, at which time all samples were analyzed again.

Q: What does the source list for `CCOC(=O)[C@@H](N)CS` [L-cysteine ethyl ester hydrochloride]?
A: RCP % t = 0 h [1]: 91.5%; RCP % t = 24 h [1]: 73.2%; RCP % t = 0 h [2]: 100%; RCP % t = 24 h [2]: 96.5%; RCP % t = 48 h [2]: 93.5%; RCP (%) t = 72 h [2]: 87.4%; (% RCP) 3-h ([3]; ^177Lu-B (44-53 mCi) formulated with 5 mg stabilizing compound, 3 h): 96.9%; (% RCP) 6-h ([3]; ^177Lu-B (44-53 mCi) formulated with 5 mg stabilizing compound, 6 h): 94.7%; (% RCP) 9-h ([3]; ^177Lu-B (44-53 mCi) formulated with 5 mg stabilizing compound, 9 h): 92.8%; (% RCP) 12-h ([3]; ^177Lu-B (44-53 mCi) formulated with 5 mg stabilizing compound, 12 h): 92.2%; (% RCP) 24-h ([3]; ^177Lu-B (44-53 mCi) formulated with 5 mg stabilizing compound, 24 h): 85.1%; (% RCP) 0-h ([3]; ^177Lu-B (44-53 mCi) formulated with 5 mg stabilizing compound, diluted to ~2 mL, ~6° C. above room temperature, 0 h): 98.4%; RCP Drop over 24 hr ([3]; ^177Lu-B formulated with 5 mg stabilizing compound, 0 to 24 h): 13.3%

Q: For `CCOC(=O)[C@@H](N)CSSC[C@H](N)C(=O)OCC.Cl.Cl` [L-cysteine diethyl ester dihydrochloride], which “RCP % t = 0 h” value [1] is on record?
A: 61.5%

Q: For `CSCC[C@H](N)C(=O)O` [L-Methionine], which “0-1 h RCP (%)” value ([4]; ^177Lu-A ~20 mCi/mL (3.5 mCi total), 0-1 h) is on record?
A: 100%

Q: And the “24-h RCP (%)” value ([4]; ^177Lu-A ~20 mCi/mL, 24 h)?
A: 99.3%

Q: And the “48-h RCP (%)” value ([4]; ^177Lu-A ~20 mCi/mL, 48 h)?
A: 94%

Q: What about the “% RCP 0-d” value ([5]; 2.5 mg/mL L-methionine (5 mg), 0 d) of the same compound?
A: 96.1%

Q: And the “% RCP 1-d” value ([5]; 2.5 mg/mL L-methionine, 1 d)?
A: 53.5%

Q: What about the “% RCP 2-d” value ([5]; 2.5 mg/mL L-methionine, 2 d) of the same compound?
A: 26.9%

Q: What about the “% RCP 5-d” value ([5]; 2.5 mg/mL L-methionine, 5 d) of the same compound?
A: 0%

Q: Which results are given for `CCc1cc(C(N)=S)ccn1` [Ethionamide, 2-Ethyl-4-pyridinecarbothioamide (Ethionamide), reference compound]?
A: RCP % t = 0 h [6]: 97.4%; RCP % t = 24 h [6]: 97.0%; RCP % t = 48 h [6]: 94.7%; RCP % t = 0 h [7]: 100%; RCP % t = 24 h [7]: 98.1%; RCP % t = 96 h [7]: 94.6%; RCP % t = 0 h ([8]; ^177Lu-A (4.65-5.64 mCi) prepared in presence of stabilizer 5 mg/mL, 0 h): 80.8%; RCP % t = 24 h ([8]; ^177Lu-A prepared in presence of stabilizer 5 mg/mL, room temperature, 24 h): 77.5%

Q: Which “RCP % t = 0 h” value [1] does the source give for `COC(=O)[C@@H](N)CS` [L-cysteine methyl ester hydrochloride] here?
A: 90.4%

Q: And the “RCP % t = 24 h” value [1]?
A: 74.4%

Q: What about the “RCP % t = 0 h” value [2] of the same compound?
A: 100%

Q: What about the “RCP % t = 24 h” value [2] of the same compound?
A: 97.1%

Q: And the “RCP % t = 48 h” value [2]?
A: 93.7%

Q: What about the “RCP (%) t = 72 h” value [2] of the same compound?
A: 87.2%

Q: For `Cl.Cl.NCCSSCCN` [Cystamine dihydrochloride], which “RCP % t = 0 h” value [1] is on record?
A: 66.2%

Q: With `COC(=O)[C@@H](N)CSSC[C@H](N)C(=O)OC.Cl.Cl` as the compound, how does the “RCP % t = 0 h” value [1] read?
A: 70.1%

Q: With `N[C@@H](CS(=O)O)C(=O)O.O` [L-cysteinesulfinic acid monohydrate] as the compound, how does the “RCP % t = 0 h” value [1] read?
A: 75.0%

Q: Which results are given for `S=c1[nH]c(=S)[nH]c(=S)[nH]1` [Trithiocyanuric acid trisodium salt nonahydrate]?
A: RCP % t = 0 h [6]: 96.9%; RCP % t = 24 h [6]: 95.9%; RCP % t = 48 h [6]: 100%; RCP % t = 0 h [7]: 100%; RCP % t = 24 h [7]: 100%; RCP % t = 96 h [7]: 0%
